Reference: BindingDB's records for doi:10.1016/0960-894X(95)00404-H (1995)
pKd: −log10 of the molar value.

Experiment: Binding affinity to protein phosphatase, calcineurin (CN) was determined

pKd | SMILES
7.70 | C=CC[C@@H]1/C=C(\C)C[C@H](C)C[C@H](OC)[C@H]2O[C@@](O)(C(=O)C(=O)N3CCCC[C@H]3C(=O)O[C@H](/C(C)=C/[C@@H]3CC[C@@H](O)[C@H](OC)C3)[C@H](C)[C@@H](O)CC1=O)[C@H](C)C[C@@H]2OC
6.46 | C=CC[C@@H]1/C=C(\C)C[C@H](C)C[C@H](OC)[C@@H](O)[C@@H](OC)C[C@@H](C)CC(=O)C(=O)N2CCCC[C@H]2C(=O)O[C@H](/C(C)=C/[C@@H]2CC[C@@H](O)[C@H](OC)C2)[C@H](C)[C@@H](O)CC1=O [18-(E)-allyl-11,21-Dihydroxy-23-[2-((R)-4-hydroxy-3-methoxy-cyclohexyl)-1-methyl-vinyl]-10,12-dimethoxy-8,14,16,22-pentamethyl-1,3,4,7,8,9,10,11,12,13,14,15,18,20,21,22,23,25a-octadecahydro-2H-24-oxa-4a-aza-benzocyclotricosene-5,6,19,25-tetraone]
< 6.00 | CCCC1C(=O)CC[C@@H](C)[C@@H](CCc2cccnc2)OC(=O)[C@@H]2CCCN(C2)C(=O)C(=O)CSCC[C@@H](OC)C[C@@H](C)CC(=O)N1C (stereo partly drawn) [(8S,10R,18R,19R,22R)-8-Methoxy-10,13,18-trimethyl-14-propyl-19-(2-pyridin-3-yl-ethyl)-20-oxa-5-thia-1,13-diaza-bicyclo[20.3.1]hexacosane-2,3,12,15,21-pentaone]
< 6.00 | CCCC1C(=O)CC[C@@H](C)[C@@H](CCc2cccnc2)OC(=O)[C@@H]2CCCN(C2)C(=O)C(O)CC[S+]([O-])CC[C@@H](OC)C[C@@H](C)CC(=O)N1C (stereo partly drawn) [(9S,11R,19R,20R,23R)-3-Hydroxy-9-methoxy-11,14,19-trimethyl-6-oxo-15-propyl-20-(2-pyridin-3-yl-ethyl)-21-oxa-6lambda*4*-thia-1,14-diaza-bicyclo[21.3.1]heptacosane-2,13,16,22-tetraone]
< 6.00 | CCC(C)C1C(=O)CC[C@@H](C)[C@@H](CCc2cccnc2)OC(=O)[C@@H]2CCCN(C2)C(=O)C(=O)CCSCC[C@@H](OC)C[C@@H](C)CC(=O)N1C (stereo partly drawn) [(9S,11R,19R,20R,23R)-15-sec-Butyl-9-methoxy-11,14,19-trimethyl-20-(2-pyridin-3-yl-ethyl)-21-oxa-6-thia-1,14-diaza-bicyclo[21.3.1]heptacosane-2,3,13,16,22-pentaone]
6.52 | C=CC[C@@H]1/C=C(\C)C[C@H](C)C[C@H](OC)[C@@H](O)[C@@H](OC)C[C@@H](C)c2ncoc2C(=O)N2CCCC[C@H]2C(=O)O[C@H](/C(C)=C/[C@@H]2CC[C@@H](O)[C@H](OC)C2)[C@H](C)C(O)CC1=O (stereo partly drawn) [(E)-18-Allyl-11,21-dihydroxy-23-[(E)-2-((R)-4-hydroxy-3-methoxy-cyclohexyl)-1-methyl-vinyl]-10,12-dimethoxy-8,14,16,22-tetramethyl-4,24-dioxa-1,6-diaza-tricyclo[24.4.0.0*3,7*]triaconta-3(7),5,16-triene-2,19,25-]
